# Experiment: clinical
# Details: human, in vivo, po
structure (smiles),measurement,value
Cc1cc(NS(=O)(=O)c2ccc(N)cc2)no1 [SULFAMETHOXAZOLE],Tmax,1 to 4 h
